Results taken from the supplement of paper PMC4380931.
± gives the standard deviation of the averaged measurements.

Assays:
K2 = assay: apoptotic fraction of cells (caspase-3 NucView488 positive); higher = more apoptosis
Protocol: (§1)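 BRAF V600E/D melanoma cell lines were seeded in 96-well plates, treated in 4 replicates with seven doses (3.16 nM to 3.16 uM) of RAF/MEK inhibitors for 24, 48 or 72 h, and stained with Hoechst 33342 (nuclei) and DEVD-NucView488 caspase-3 substrate. Plates were imaged on an Operetta. Relative viability is the cell count normalised to a DMSO-treated control; apoptosis fraction is the fraction of NucView488-positive nuclei.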

COLO858 [1] = assay: as above
Protocol: as §1

WM1552C = assay: as above
Protocol: as §1

MZ7MEL = assay: as above
Protocol: as §1

WM115 = assay: as above
Protocol: as §1

COLO858 [2] = assay: relative viability (cell count relative to DMSO-treated control) (fraction of DMSO control); higher = more viable cells / less drug effect
Protocol: as §1

C32 = assay: as above
Protocol: as §1

CCCS(=O)(=O)Nc1ccc(F)c(C(=O)c2c[nH]c3ncc(-c4ccc(Cl)cc4)cc23)c1F [Vemurafenib]
Conditions | apoptotic fraction of cells, COLO858 [1] | apoptotic fraction of cells, K2 | apoptotic fraction of cells, MZ7MEL | apoptotic fraction of cells, WM115 | apoptotic fraction of cells, WM1552C | relative viability, C32 | relative viability, COLO858 [2]
24 h, 0.00316 µM | 0.0468 ± 0.0095 | 0.00416 ± 0.00064 | 0.0137 ± 0.0022 | 0.0555 ± 0.013 | 0.0617 ± 0.014 | 0.987 ± 0.076 | 0.782 ± 0.35
24 h, 0.01 µM | 0.0448 ± 0.003 | 0.00233 ± 0.00052 | 0.0131 ± 0.0055 | 0.0451 ± 0.015 | 0.0655 ± 0.0029 | 0.995 ± 0.068 | 1.02 ± 0.43
24 h, 0.0316 µM | 0.0467 ± 0.0044 | 0.00265 ± 0.0012 | 0.00722 ± 0.0034 | 0.0561 ± 0.015 | 0.0602 ± 0.0019 | 1.03 ± 0.048 | 1.05 ± 0.37
24 h, 0.1 µM | 0.0418 ± 0.0056 | 0.00174 ± 0.00056 | 0.00978 ± 0.0037 | 0.0385 ± 0.0038 | 0.0665 ± 0.006 | 0.985 ± 0.045 | 0.988 ± 0.35
24 h, 0.316 µM | 0.0538 ± 0.0067 | 0.00473 ± 0.0021 | 0.0118 ± 0.004 | 0.0444 ± 0.014 | 0.0682 ± 0.013 | 0.997 ± 0.068 | 0.916 ± 0.3
24 h, 1 µM | 0.0998 ± 0.019 | 0.0444 ± 0.018 | 0.0206 ± 0.0059 | 0.0572 ± 0.024 | 0.0745 ± 0.011 | 0.927 ± 0.1 | 0.824 ± 0.31
24 h, 3.16 µM | 0.151 ± 0.021 | 0.183 ± 0.023 | 0.0379 ± 0.0074 | 0.0792 ± 0.02 | 0.0696 ± 0.0058 | 0.637 ± 0.026 | 0.703 ± 0.24
48 h, 0.00316 µM | 0.0487 ± 0.0082 | 0.00306 ± 0.0014 | 0.0184 ± 0.007 | 0.0621 ± 0.0095 | 0.078 ± 0.009 | 1.07 ± 0.13 | 0.926 ± 0.045
48 h, 0.01 µM | 0.0502 ± 0.0055 | 0.00257 ± 0.0014 | 0.0167 ± 0.0068 | 0.0504 ± 0.016 | 0.0701 ± 0.01 | 0.901 ± 0.19 | 1.02 ± 0.07
48 h, 0.0316 µM | 0.048 ± 0.0033 | 0.00173 ± 0.00032 | 0.0196 ± 0.0087 | 0.0424 ± 0.01 | 0.0688 ± 0.0095 | 0.891 ± 0.2 | 1 ± 0.043
48 h, 0.1 µM | 0.0491 ± 0.0029 | 0.00229 ± 0.001 | 0.0148 ± 0.01 | 0.0407 ± 0.0082 | 0.0684 ± 0.011 | 0.96 ± 0.13 | 0.933 ± 0.081
48 h, 0.316 µM | 0.0797 ± 0.014 | 0.0116 ± 0.0029 | 0.0203 ± 0.008 | 0.0303 ± 0.0054 | 0.063 ± 0.011 | 0.988 ± 0.12 | 0.574 ± 0.077
48 h, 1 µM | 0.194 ± 0.045 | 0.0823 ± 0.027 | 0.0385 ± 0.018 | 0.045 ± 0.0026 | 0.0641 ± 0.017 | 0.551 ± 0.094 | 0.362 ± 0.04
48 h, 3.16 µM | 0.453 ± 0.066 | 0.237 ± 0.036 | 0.0682 ± 0.024 | 0.116 ± 0.035 | 0.0951 ± 0.018 | 0.102 ± 0.018 | 0.215 ± 0.016
72 h, 0.00316 µM | 0.0879 ± 0.0045 | – | 0.0218 ± 0.0078 | 0.0323 ± 0.0042 | 0.088 ± 0.0055 | 1.04 ± 0.13 | 1.21 ± 0.055
72 h, 0.01 µM | 0.0831 ± 0.013 | – | 0.0158 ± 0.0011 | 0.0325 ± 0.0046 | 0.0756 ± 0.014 | 1.07 ± 0.077 | 1.18 ± 0.19
72 h, 0.0316 µM | 0.0746 ± 0.0059 | – | 0.0159 ± 0.0089 | 0.0317 ± 0.0037 | 0.0733 ± 0.0083 | 1.02 ± 0.036 | 1.31 ± 0.063
72 h, 0.1 µM | 0.0587 ± 0.0014 | – | 0.0167 ± 0.0062 | 0.0278 ± 0.0037 | 0.0668 ± 0.0043 | 0.875 ± 0.067 | 1.15 ± 0.13
72 h, 0.316 µM | 0.0687 ± 0.0033 | – | 0.0378 ± 0.005 | 0.0361 ± 0.0031 | 0.0671 ± 0.0047 | 0.684 ± 0.05 | 0.68 ± 0.076
72 h, 1 µM | 0.25 ± 0.014 | – | 0.103 ± 0.0068 | 0.125 ± 0.019 | 0.0874 ± 0.0044 | 0.162 ± 0.035 | 0.393 ± 0.052
72 h, 3.16 µM | 0.723 ± 0.025 | – | 0.193 ± 0.025 | 0.407 ± 0.05 | 0.164 ± 0.01 | 0.0274 ± 0.01 | 0.127 ± 0.018

Cc1ccc(NC(=O)c2cccc(C(C)(C)C#N)c2)cc1Nc1ccc2ncn(C)c(=O)c2c1 [AZ628]
Conditions | apoptotic fraction of cells, COLO858 [1] | apoptotic fraction of cells, K2 | apoptotic fraction of cells, MZ7MEL | apoptotic fraction of cells, WM115 | apoptotic fraction of cells, WM1552C | relative viability, C32 | relative viability, COLO858 [2]
24 h, 0.00316 µM | 0.0485 ± 0.0059 | 0.00396 ± 0.00093 | 0.0132 ± 0.006 | 0.0464 ± 0.011 | 0.0672 ± 0.0095 | 1.09 ± 0.15 | 0.923 ± 0.4
24 h, 0.01 µM | 0.0403 ± 0.0028 | 0.003 ± 0.00036 | 0.0129 ± 0.0019 | 0.0415 ± 0.0061 | 0.0724 ± 0.0046 | 1.12 ± 0.043 | 1.12 ± 0.35
24 h, 0.0316 µM | 0.0435 ± 0.0063 | 0.00276 ± 0.002 | 0.0104 ± 0.0083 | 0.0535 ± 0.0073 | 0.0622 ± 0.0018 | 1.05 ± 0.15 | 1.16 ± 0.35
24 h, 0.1 µM | 0.0728 ± 0.0065 | 0.00598 ± 0.0023 | 0.00814 ± 0.0047 | 0.0496 ± 0.013 | 0.0716 ± 0.0026 | 1.02 ± 0.061 | 0.982 ± 0.27
24 h, 0.316 µM | 0.105 ± 0.011 | 0.0287 ± 0.014 | 0.0204 ± 0.0053 | 0.0725 ± 0.023 | 0.0799 ± 0.0038 | 0.87 ± 0.05 | 0.938 ± 0.26
24 h, 1 µM | 0.136 ± 0.015 | 0.117 ± 0.036 | 0.032 ± 0.015 | 0.135 ± 0.023 | 0.0776 ± 0.006 | 0.757 ± 0.036 | 0.902 ± 0.28
24 h, 3.16 µM | 0.171 ± 0.0066 | 0.135 ± 0.041 | 0.0453 ± 0.0093 | 0.202 ± 0.1 | 0.104 ± 0.018 | 0.877 ± 0.035 | 0.816 ± 0.24
48 h, 0.00316 µM | 0.0518 ± 0.0063 | 0.00258 ± 0.0012 | 0.0137 ± 0.0038 | 0.0302 ± 0.0073 | 0.0725 ± 0.013 | 1.17 ± 0.085 | 0.965 ± 0.033
48 h, 0.01 µM | 0.0435 ± 0.0043 | 0.00301 ± 0.0014 | 0.0171 ± 0.0039 | 0.0498 ± 0.014 | 0.0688 ± 0.012 | 1.14 ± 0.19 | 1.08 ± 0.054
48 h, 0.0316 µM | 0.0477 ± 0.0086 | 0.00475 ± 0.0019 | 0.0173 ± 0.00068 | 0.0357 ± 0.0068 | 0.0702 ± 0.021 | 1.01 ± 0.11 | 0.778 ± 0.031
48 h, 0.1 µM | 0.12 ± 0.034 | 0.0219 ± 0.0043 | 0.0263 ± 0.006 | 0.0517 ± 0.007 | 0.0329 ± 0.014 | 0.793 ± 0.072 | 0.48 ± 0.023
48 h, 0.316 µM | 0.221 ± 0.011 | 0.0649 ± 0.014 | 0.0421 ± 0.0069 | 0.139 ± 0.063 | 0.0464 ± 0.022 | 0.428 ± 0.075 | 0.368 ± 0.016
48 h, 1 µM | 0.296 ± 0.046 | 0.254 ± 0.036 | 0.0561 ± 0.0057 | 0.311 ± 0.039 | 0.0857 ± 0.02 | 0.109 ± 0.0073 | 0.319 ± 0.0075
48 h, 3.16 µM | 0.436 ± 0.033 | 0.358 ± 0.046 | 0.0749 ± 0.0098 | 0.379 ± 0.043 | 0.108 ± 0.032 | 0.0749 ± 0.0091 | 0.248 ± 0.022
72 h, 0.00316 µM | 0.0847 ± 0.0054 | – | 0.0208 ± 0.0082 | 0.0295 ± 0.0037 | 0.0855 ± 0.004 | 0.992 ± 0.19 | 1.05 ± 0.054
72 h, 0.01 µM | 0.0691 ± 0.0041 | – | 0.0145 ± 0.0031 | 0.0285 ± 0.0053 | 0.0732 ± 0.0055 | 1.1 ± 0.099 | 1.13 ± 0.083
72 h, 0.0316 µM | 0.0679 ± 0.0052 | – | 0.0428 ± 0.01 | 0.0418 ± 0.0034 | 0.0827 ± 0.026 | 0.947 ± 0.12 | 0.716 ± 0.056
72 h, 0.1 µM | 0.109 ± 0.011 | – | 0.156 ± 0.011 | 0.159 ± 0.039 | 0.0883 ± 0.0036 | 0.45 ± 0.024 | 0.475 ± 0.017
72 h, 0.316 µM | 0.225 ± 0.019 | – | 0.236 ± 0.026 | 0.419 ± 0.052 | 0.134 ± 0.0099 | 0.163 ± 0.029 | 0.392 ± 0.039
72 h, 1 µM | 0.381 ± 0.024 | – | 0.265 ± 0.026 | 0.644 ± 0.092 | 0.153 ± 0.0054 | 0.059 ± 0.0094 | 0.307 ± 0.03
72 h, 3.16 µM | 0.534 ± 0.015 | – | 0.293 ± 0.012 | 0.82 ± 0.04 | 0.172 ± 0.0067 | 0.0269 ± 0.0051 | 0.213 ± 0.0035
